The NIST ThermoML archive (doi:10.1016/j.jct.2019.02.011)

Assay: xn = mol fraction of the nth substance listed
Settings: Liquid, Vibrating tube method

COC(=O)OC [dimethyl carbonate] + CCO
mass density [kg/m3]
Settings	100 kPa	5000 kPa	10000 kPa	15000 kPa	20000 kPa	25000 kPa	30000 kPa	35000 kPa	40000 kPa
288.15 K, x1 = 0.0252	804.2	808	812.06	815.89	819.61	822.92	826.21	829.16	832.33
288.15 K, x1 = 0.0506	813.67	817.57	821.64	825.53	829.25	832.61	835.95	838.9	842.19
288.15 K, x1 = 0.0757	823.01	826.96	831.04	834.98	838.69	842.06	845.41	848.42	851.7
288.15 K, x1 = 0.1003	831.96	835.91	839.99	843.94	847.7	851.08	854.48	857.54	860.78
288.15 K, x1 = 0.1508	849.93	853.94	858.08	862.04	865.84	869.28	872.69	875.76	879.06
288.15 K, x1 = 0.2	866.84	870.91	875.1	879.08	882.88	886.33	889.8	892.93	896.24
288.15 K, x1 = 0.2547	885.11	889.19	893.38	897.43	901.27	904.73	908.21	911.35	914.67
288.15 K, x1 = 0.3002	899.9	903.99	908.19	912.25	916.09	919.56	923.05	926.24	929.57
288.15 K, x1 = 0.3498	915.51	919.65	923.86	927.88	931.71	935.24	938.74	941.95	945.28
288.15 K, x1 = 0.4	930.78	934.94	939.15	943.23	947.06	950.6	954.16	957.37	960.71
288.15 K, x1 = 0.449	945.14	949.35	953.57	957.66	961.48	965.03	968.6	971.87	975.22
288.15 K, x1 = 0.4996	959.51	963.73	967.96	972.06	975.93	979.49	983.06	986.34	989.7
288.15 K, x1 = 0.5507	973.56	977.78	982.01	986.13	989.99	993.56	997.14	1000.43	1003.8
288.15 K, x1 = 0.6005	986.73	990.95	995.19	999.32	1003.17	1006.8	1010.39	1013.69	1017.06
288.15 K, x1 = 0.6455	998.17	1002.45	1006.64	1010.83	1014.68	1018.32	1021.92	1025.22	1028.6
288.15 K, x1 = 0.6931	1009.92	1014.21	1018.41	1022.55	1026.4	1030.05	1033.65	1037.01	1040.4
288.15 K, x1 = 0.7502	1023.43	1027.72	1031.92	1036.08	1039.92	1043.58	1047.24	1050.61	1054
288.15 K, x1 = 0.8009	1035	1039.3	1043.51	1047.68	1051.52	1055.18	1058.85	1062.22	1065.62
288.15 K, x1 = 0.8505	1046	1050.3	1054.51	1058.68	1062.52	1066.19	1069.82	1073.25	1076.6
288.15 K, x1 = 0.9008	1056.7	1061.01	1065.22	1069.4	1073.24	1076.92	1080.55	1083.98	1087.34
288.15 K, x1 = 0.9255	1061.81	1066.14	1070.35	1074.54	1078.38	1082.06	1085.69	1089.13	1092.49
288.15 K, x1 = 0.9477	1066.36	1070.68	1074.89	1079.08	1082.92	1086.6	1090.23	1093.68	1097.04
288.15 K, x1 = 0.9735	1071.55	1075.89	1080.08	1084.28	1088.11	1091.79	1095.43	1098.88	1102.23
288.15 K, x1 = 1	1076.83	1081.15	1085.32	1089.52	1093.35	1096.99	1100.63	1104.08	1107.4
293.15 K, x1 = 0.0252	799.52	803.53	807.63	–	–	–	–	–	–
293.15 K, x1 = 0.0506	808.93	813.04	817.2	–	–	–	–	–	–
293.15 K, x1 = 0.0757	818.21	822.32	826.48	–	–	–	–	–	–
293.15 K, x1 = 0.1003	827.05	831.21	835.37	–	–	–	–	–	–
293.15 K, x1 = 0.1508	844.9	849.11	853.32	–	–	–	–	–	–
293.15 K, x1 = 0.2	861.69	865.96	870.22	–	–	–	–	–	–
293.15 K, x1 = 0.2547	879.83	884.11	–	–	–	–	–	–	–
293.15 K, x1 = 0.3002	894.46	898.79	–	–	–	–	–	–	–
293.15 K, x1 = 0.3498	909.95	914.32	–	–	–	–	–	–	–
293.15 K, x1 = 0.4	925.11	929.49	–	–	–	–	–	–	–
293.15 K, x1 = 0.449	939.35	943.78	–	–	–	–	–	–	–
293.15 K, x1 = 0.4996	953.6	958.04	–	–	–	–	–	–	–
293.15 K, x1 = 0.5507	967.53	971.96	–	–	–	–	–	–	–
293.15 K, x1 = 0.6005	980.58	985.07	–	–	–	–	–	–	–
293.15 K, x1 = 0.6455	991.96	996.45	–	–	–	–	–	–	–
293.15 K, x1 = 0.6931	1003.6	1008.14	–	–	–	–	–	–	–
293.15 K, x1 = 0.7502	1017.03	1021.58	–	–	–	–	–	–	–
293.15 K, x1 = 0.8009	1028.54	1033.09	–	–	–	–	–	–	–
293.15 K, x1 = 0.8505	1039.42	1043.97	–	–	–	–	–	–	–
293.15 K, x1 = 0.9008	1050.05	1054.61	–	–	–	–	–	–	–
293.15 K, x1 = 0.9255	1055.15	1059.71	–	–	–	–	–	–	–
293.15 K, x1 = 0.9477	1059.65	1064.21	–	–	–	–	–	–	–
293.15 K, x1 = 0.9735	1064.83	1069.39	–	–	–	–	–	–	–
293.15 K, x1 = 1	1070.06	1074.62	–	–	–	–	–	–	–
